Results from patent US8895282B2, “Use of a substance for manufacturing of a medicament for treatment of common cold” (Tanomed AB, priority 2008, dated 2014).
“And” between values parts separate entries of the source, which are not always exact repeats. Identical values can stand only once. Like-named read-outs stand apart in the source and are kept apart here.

Columns and labels:
Rhinovirus 8 [1] = details: for Infection of WI 38 cells after 10 days of inoculation: 10 U GO + 5% glucose added after 2 days
Rhinovirus 7 [2] = details: for Day 3 (cytopathic effect of RV 7 on WI 38 cells) / Day 5 (cytopathic effect of RV 7 on WI 38 cells) / Day 7 (cytopathic effect of RV 7 on WI 38 cells): 20 U GO/ml; for Incubation time for inactivation of rhinovirus: glucose oxidase 20 U/ml
Method: Virus: Rhinovirus 7, purchased from ATCC (VR-1117), was used as a representative for the rhinovirus group. In the assays the dilutions 10^−2 and 10^−3 were used. […] 0.3 ml of each dilution was added into the vials.
Cell culture: Human lung cell fibroblasts (WI 38, ATCC-CCL-75) was used for cytopathic effect detection. 10-fold serial dilutions had been made from the concentrated viral suspension. […] Then the media was changed to RPMI with 2% of fetal calf serum, which was preserved during the assay. The cells were incubated in CO2enriched air at 37° C. During the experiments a cell culture of 17th-18^thpassage was used.
Catalase: From Sigma-Aldrich™. A solution of 100 000 U/ml was prepared from the original solution of 10^6 U/ml.
H2O2: a 20% solution was diluted in Phosphate buffered saline (PBS) to a 0.5% and a 0.05% solution. 0.1 ml was added to the vials, which means 0.05% or 0.005% in the vials.
A solution of 200 U/ml and 600 U/ml was prepared from the original solution of 6000 U/ml.
In order to evaluate whether the effect of the hydrogen peroxide was a direct effect on the virus itself or a cytoprotective effect, we preincubated the virus with the hydrogen peroxide, before it was transferred to the wells with the cells. The WI 38 cells are also sensitive to hydrogen peroxide, and therefore it was necessary to add catalase before inoculation into the wells. […] This design would also reveal if the inhibitory effect was only a virostatic one, or if it could damage the virions irreversibly.
In table 1 the content of each of the 10 vials (Eppendorf) is listed. The vials were incubated in a heater keeping a stable temperature of 37° C. 1000 U of catalase was added after 15, 30 and 60 min of incubation. 2×50 μl from each vial was transferred to duplicate cell wells (a 96-well plate).

Rhinovirus 7 [3] = details: for Infection of WI 38 cells after 10 days of inoculation: 10 U GO + 5% glucose added after 2 days
Rhinovirus 8 [4] = test system: Rhinovirus 8
Method: (§1) Virus concentration=dil 2. Incubation during 30 min in heater keeping 37° C. After 30 min the effect of the hydrogen peroxide is aborted with the addition of 0.1 ml catalase solution into the vial (=1 kU/ml). • 0.7 ml 5% glucose solution+0.1 ml dil 1 of RV7 (=a7) or RV8 (=a8)+0.1 ml of the hydrogen peroxide solution (=final concentration in the vial=[…]). Incubation and abortion of the hydrogen peroxide effect similar as in a).
(§2) Altogether 4 vials (Eppendorff): a7, a8, b7 and b8.
(§3) After the addition of catalase, samples are transferred to a 96-well plate with flat bottom according to table 3.

Rhinovirus 7 [5] = test system: Rhinovirus 7
Method: as §1, §2, §3

[6] = Glucose Oxidase added into the wells 2 days after the initial incubation
[7] = RV 7 dil 10^−2, preincubation 15 min
[8] = RV 7 dil 10^−2, preincubation 30 min
[9] = RV 7 dil 10^−2, preincubation 60 min
[10] = RV 7 dil 10^−3, preincubation 15 min
[11] = RV 7 dil 10^−3, preincubation 30 min
[12] = RV 7 dil 10^−3, preincubation 60 min
[13] = 40 U/ml of Glucose Oxidase, high initial inoculate
[14] = 50 μl a8: RV8 dil 2 preincubated 30 min with 40 U/ml Glucose Oxidase, then catalase
[15] = 50 μl a7: RV7 dil 2 preincubated 30 min with 40 U/ml Glucose Oxidase, then catalase

Substance: Glucose oxidase [GO]
- Infection of WI 38 cells after 10 days of inoculation (Rhinovirus 8 [1]; well E2, 50 μl RV8 dilution 2): 2+
- Infection of WI 38 cells after 10 days of inoculation (Rhinovirus 8 [1]; well E4, 50 μl RV8 dilution 4): 0
- Infection of WI 38 cells after 10 days of inoculation (Rhinovirus 8 [1]; wells D9, C9, 10 μl RV8 dilution 1): 2+ and 3+
- Spread of viral infection to other cells (Rhinovirus 8 [1]; [6]): could prevent the spread of viral infection
- GO concentration having an effect on the Rhinovirus infection (Rhinovirus 7 [2]): less than 20 U/ml
- Day 3 (cytopathic effect of RV 7 on WI 38 cells) (Rhinovirus 7 [2]; [7]): −
- Day 5 (cytopathic effect of RV 7 on WI 38 cells) (Rhinovirus 7 [2]; [7]): −
- Day 7 (cytopathic effect of RV 7 on WI 38 cells) (Rhinovirus 7 [2]; [7]): −
- Day 3 (cytopathic effect of RV 7 on WI 38 cells) (Rhinovirus 7 [2]; [8]): −
- Day 5 (cytopathic effect of RV 7 on WI 38 cells) (Rhinovirus 7 [2]; [8]): −
- Day 7 (cytopathic effect of RV 7 on WI 38 cells) (Rhinovirus 7 [2]; [8]): −
- Day 3 (cytopathic effect of RV 7 on WI 38 cells) (Rhinovirus 7 [2]; [9]): −
- Day 5 (cytopathic effect of RV 7 on WI 38 cells) (Rhinovirus 7 [2]; [9]): −
- Day 7 (cytopathic effect of RV 7 on WI 38 cells) (Rhinovirus 7 [2]; [9]): −
- Day 3 (cytopathic effect of RV 7 on WI 38 cells) (Rhinovirus 7 [2]; [10]): −
- Day 5 (cytopathic effect of RV 7 on WI 38 cells) (Rhinovirus 7 [2]; [10]): −
- Day 7 (cytopathic effect of RV 7 on WI 38 cells) (Rhinovirus 7 [2]; [10]): −
- Day 3 (cytopathic effect of RV 7 on WI 38 cells) (Rhinovirus 7 [2]; [11]): −
- Day 5 (cytopathic effect of RV 7 on WI 38 cells) (Rhinovirus 7 [2]; [11]): −
- Day 7 (cytopathic effect of RV 7 on WI 38 cells) (Rhinovirus 7 [2]; [11]): −
- Day 3 (cytopathic effect of RV 7 on WI 38 cells) (Rhinovirus 7 [2]; [12]): −
- Day 5 (cytopathic effect of RV 7 on WI 38 cells) (Rhinovirus 7 [2]; [12]): −
- Day 7 (cytopathic effect of RV 7 on WI 38 cells) (Rhinovirus 7 [2]; [12]): −
- Amount of H2O2 produced by Glucose Oxidase, equivalent (Rhinovirus 7 [2]; 20 U/ml of Glucose Oxidase): more than 0.005 % H2O2
- Hydrogen peroxide concentration corresponding to the effective GO concentration (Rhinovirus 7 [2]; GO less than 20 U/ml): more than 10 mM
- Reversibility of the inactivation of RV 7 (Rhinovirus 7 [2]; Glucose Oxidase or 0.05% hydrogen peroxide solution, 7 days of incubation, no sign of recovery): irreversible
- Glucose Oxidase concentration sufficient for complete inactivation of RV 7 (Rhinovirus 7 [2]; WI 38 cells): 20 U/ml
- Cytopathic effect in wells where Glucose Oxidase had been incubated with RV 7 (Rhinovirus 7 [2]; after 5 days of incubation, even after only 15 min preincubation and higher RV 7 concentration): no cytopathic effect
- Incubation time for inactivation of rhinovirus (Rhinovirus 7 [2]): ≤ 30 min
- Incubation time for inactivation of rhinovirus (Rhinovirus 7 [2]; listed as glucose oxidase): less than 30 minutes
- Infection of WI 38 cells after 10 days of inoculation (Rhinovirus 7 [3]; well E1, 50 μl RV7 dilution 2): 2+
- Infection of WI 38 cells after 10 days of inoculation (Rhinovirus 7 [3]; well E3, 50 μl RV7 dilution 4): 0
- Infection of WI 38 cells after 10 days of inoculation (Rhinovirus 7 [3]; wells F9, E9, 10 μl RV7 dilution 1): 1+
- Spread of viral infection to other cells (Rhinovirus 7 [3]; [6]): could prevent the spread of viral infection
- Inactivation of RV 8 (Rhinovirus 8 [4]; [13]): able to inactivate
- Infection of WI 38 cells after 2 days of inoculation (Rhinovirus 8 [4]; [14]): 0
- Infection of WI 38 cells after 10 days of inoculation (Rhinovirus 8 [4]; [14]): 0
- Inactivation of RV 7 (Rhinovirus 7 [5]; [13]): able to inactivate
- Infection of WI 38 cells after 2 days of inoculation (Rhinovirus 7 [5]; [15]): 0
- Infection of WI 38 cells after 10 days of inoculation (Rhinovirus 7 [5]; [15]): 0
